Tested on: E. coli (ATCC 25922)
Test: AATCC Test Method 100-2012 antibacterial activity of the treated textile, after 25 washes and 12 abrasion cycles, contact time 60 minutes
Format: cell-based
Details: for Log reduction of antimicrobial performance: 1% o.w.f; for Log reduction of antimicrobial performance in 100 GSM Polyester fabric / Log reduction of antimicrobial performance in 100 GSM cotton fabric / Log reduction of antimicrobial performance in 300 GSM Polyester fabric / Log reduction of antimicrobial performance in 300 GSM cotton fabric / Performance Test-Log reduction of antimicrobial performance: 2 min; for Performance Test-Log reduction of antimicrobial performance: pad process, single agent 5 gm/lit
Description: The antibacterial activity of the textile was tested in accordance with AATCC Test Method 100-2012. Prior to the test, the fabric was cut into coupons of 2×4 inches and washed separately 25 times, and exposed to 12 abrasion cycles, as per US EPA protocol 90072PA4 (described further below). The tests were made against E. coli (ATCC 25922). Contact time was 60 minutes, after inoculating with 10^8 CFU per coupon.

[1] = exhaust 80° C., 60 min, curing 180° C., dosage 0.1% o.w.f
[2] = exhaust 80° C., 60 min, curing 180° C., dosage 0.2% o.w.f
[3] = exhaust 80° C., 60 min, curing 180° C., dosage 0.5% o.w.f
[4] = exhaust 80° C., 60 min, curing 180° C., dosage 0.8% o.w.f
[5] = exhaust 80° C., 60 min, curing 180° C., dosage 1.0% o.w.f

## CCCC1COC(Cn2cncn2)(c2ccc(Cl)cc2Cl)O1 (stereo not drawn) [Propiconazole, propiconazole]
Exhaust 60° C., solution dosage 1% o.w.f, process time 60 min
  Log reduction of antimicrobial performance of each active ingredient: 1.7 Log
Exhaust 60° C., solution dosage 1% o.w.f, process time 90 min
  Log reduction of antimicrobial performance of each active ingredient: 1.8 Log
Exhaust 60° C., solution dosage 1% o.w.f, process time 120 min
  Log reduction of antimicrobial performance of each active ingredient: 2.2 Log
Exhaust 60° C., solution dosage 1% o.w.f, process time 180 min
  Log reduction of antimicrobial performance of each active ingredient: 2.3 Log
Exhaust 60° C., solution dosage 1% o.w.f, process time 240 min
  Log reduction of antimicrobial performance of each active ingredient: 2.11 Log
Exhaust 80° C., 60 min, curing 170° C., curing dwell time 0.5 min
  Log reduction of antimicrobial performance: 0.3 Log
Exhaust 80° C., 60 min, curing 170° C., curing dwell time 1.0 min
  Log reduction of antimicrobial performance: 0.6 Log
Exhaust 80° C., 60 min, curing 170° C., curing dwell time 1.5 min
  Log reduction of antimicrobial performance: 0.8 Log
Exhaust 80° C., 60 min, curing 170° C., curing dwell time 2.0 min
  Log reduction of antimicrobial performance: 1.3 Log
Exhaust 80° C., 60 min, curing 170° C., curing dwell time 2.5 min
  Log reduction of antimicrobial performance: 1.1 Log
Exhaust 80° C., 60 min, curing 170° C., curing dwell time 3.0 min
  Log reduction of antimicrobial performance: 0.67 Log
Exhaust 80° C., 60 min, curing 180° C., curing dwell time 0.5 min
  Log reduction of antimicrobial performance: 1.7 Log
Exhaust 80° C., 60 min, curing 180° C., curing dwell time 1.0 min
  Log reduction of antimicrobial performance: 1.8 Log
Exhaust 80° C., 60 min, curing 180° C., curing dwell time 1.5 min
  Log reduction of antimicrobial performance: 2.2 Log
Exhaust 80° C., 60 min, curing 180° C., curing dwell time 2.0 min
  Log reduction of antimicrobial performance: 3.8 Log
Exhaust 80° C., 60 min, curing 180° C., curing dwell time 2.5 min
  Log reduction of antimicrobial performance: 3.5 Log
Exhaust 80° C., 60 min, curing 180° C., curing dwell time 3.0 min
  Log reduction of antimicrobial performance: 3.4 Log
Exhaust 80° C., 60 min, curing 190° C., curing dwell time 0.5 min
  Log reduction of antimicrobial performance: 0.3 Log
Exhaust 80° C., 60 min, curing 190° C., curing dwell time 1.0 min
  Log reduction of antimicrobial performance: 0.8 Log
Exhaust 80° C., 60 min, curing 190° C., curing dwell time 1.5 min
  Log reduction of antimicrobial performance: 2.2 Log
Exhaust 80° C., 60 min, curing 190° C., curing dwell time 2.0 min
  Log reduction of antimicrobial performance: 2.88 Log
Exhaust 80° C., 60 min, curing 190° C., curing dwell time 2.5 min
  Log reduction of antimicrobial performance: 2.34 Log
Exhaust 80° C., 60 min, curing 190° C., curing dwell time 3.0 min
  Log reduction of antimicrobial performance: 1.1 Log
Exhaust 80° C., 60 min, curing temperature 100 ° C.
  Log reduction of antimicrobial performance: 0.21 Log
Exhaust 80° C., 60 min, curing temperature 120 ° C.
  Log reduction of antimicrobial performance: 0.45 Log
Exhaust 80° C., 60 min, curing temperature 140 ° C.
  Log reduction of antimicrobial performance: 0.98 Log
Exhaust 80° C., 60 min, curing temperature 160 ° C.
  Log reduction of antimicrobial performance: 1.23 Log
Exhaust 80° C., 60 min, curing temperature 165 ° C.
  Log reduction of antimicrobial performance: 1.28 Log
Exhaust 80° C., 60 min, curing temperature 170 ° C.
  Log reduction of antimicrobial performance: 1.45 Log
Exhaust 80° C., 60 min, curing temperature 175 ° C.
  Log reduction of antimicrobial performance: 2.32 Log
Exhaust 80° C., 60 min, curing temperature 180 ° C.
  Log reduction of antimicrobial performance: 2.87 Log
Exhaust 80° C., 60 min, curing temperature 185 ° C.
  Log reduction of antimicrobial performance: 2.88 Log
Exhaust 80° C., 60 min, curing temperature 190 ° C.
  Log reduction of antimicrobial performance: 2.91 Log
Exhaust 80° C., 60 min, curing temperature 195 ° C.
  Log reduction of antimicrobial performance: 2.93 Log
[1]
  Log reduction of antimicrobial performance in 100 GSM Polyester fabric: 0.59 Log
  Log reduction of antimicrobial performance in 100 GSM cotton fabric: 0.63 Log
  Log reduction of antimicrobial performance in 300 GSM Polyester fabric: 0.58 Log
  Log reduction of antimicrobial performance in 300 GSM cotton fabric: 0.64 Log
[2]
  Log reduction of antimicrobial performance in 100 GSM Polyester fabric: 1.35 Log
  Log reduction of antimicrobial performance in 100 GSM cotton fabric: 1.45 Log
  Log reduction of antimicrobial performance in 300 GSM Polyester fabric: 1.37 Log
  Log reduction of antimicrobial performance in 300 GSM cotton fabric: 1.45 Log
[3]
  Log reduction of antimicrobial performance in 100 GSM Polyester fabric: 1.71 Log
  Log reduction of antimicrobial performance in 100 GSM cotton fabric: 1.95 Log
  Log reduction of antimicrobial performance in 300 GSM Polyester fabric: 1.73 Log
  Log reduction of antimicrobial performance in 300 GSM cotton fabric: 1.95 Log
[4]
  Log reduction of antimicrobial performance in 100 GSM Polyester fabric: 2.14 Log
  Log reduction of antimicrobial performance in 100 GSM cotton fabric: 2.34 Log
  Log reduction of antimicrobial performance in 300 GSM Polyester fabric: 2.50 Log
  Log reduction of antimicrobial performance in 300 GSM cotton fabric: 2.34 Log
[5]
  Log reduction of antimicrobial performance in 100 GSM Polyester fabric: 2.75 Log
  Log reduction of antimicrobial performance in 100 GSM cotton fabric: 2.85 Log
  Log reduction of antimicrobial performance in 300 GSM Polyester fabric: 2.74 Log
  Log reduction of antimicrobial performance in 300 GSM cotton fabric: 2.88 Log
Exhaust 80° C., 60 min, dosage 1% o.w.f (test up to 5% o.w.f)
  Log reduction of antimicrobial performance of each active ingredient: 2.56 Log
Exhaust 80° C., 60 min, dosage 2% o.w.f
  Log reduction of antimicrobial performance of each active ingredient: 2.57 Log
Exhaust 80° C., 60 min, dosage 3% o.w.f
  Log reduction of antimicrobial performance of each active ingredient: 2.58 Log
Exhaust 80° C., 60 min, dosage 4% o.w.f
  Log reduction of antimicrobial performance of each active ingredient: 2.61 Log
Exhaust 80° C., 60 min, dosage 5% o.w.f
  Log reduction of antimicrobial performance of each active ingredient: 2.63 Log
Exhaust 80 ° C., solution dosage 1% o.w.f, process time 10 min
  Log reduction of antimicrobial performance of each active ingredient: 0.83 Log
Exhaust 80 ° C., solution dosage 1% o.w.f, process time 20 min
  Log reduction of antimicrobial performance of each active ingredient: 0.99 Log
Exhaust 80 ° C., solution dosage 1% o.w.f, process time 30 min
  Log reduction of antimicrobial performance of each active ingredient: 1.23 Log
Exhaust 80 ° C., solution dosage 1% o.w.f, process time 40 min
  Log reduction of antimicrobial performance of each active ingredient: 1.67 Log
Exhaust 80 ° C., solution dosage 1% o.w.f, process time 50 min
  Log reduction of antimicrobial performance of each active ingredient: 2.56 Log
Exhaust 80 ° C., solution dosage 1% o.w.f, process time 60 min
  Log reduction of antimicrobial performance of each active ingredient: 2.87 Log
Exhaust 80 ° C., solution dosage 1% o.w.f, process time 70 min
  Log reduction of antimicrobial performance of each active ingredient: 2.89 Log
Exhaust 80 ° C., solution dosage 1% o.w.f, process time 80 min
  Log reduction of antimicrobial performance of each active ingredient: 2.93 Log
Exhaust 80 ° C., solution dosage 1% o.w.f, process time 90 min
  Log reduction of antimicrobial performance of each active ingredient: 2.94 Log
Curing 120° C.
  Performance Test-Log reduction of antimicrobial performance: 0.04 Log
Curing 140° C.
  Performance Test-Log reduction of antimicrobial performance: 0.14 Log
Curing 150° C.
  Performance Test-Log reduction of antimicrobial performance: 0.22 Log
Curing 160° C.
  Performance Test-Log reduction of antimicrobial performance: 0.49 Log
